Experiments:
[1] = test system: PMA-induced inflammation (edema) of the mouse ear; assay: Inhibition of mouse ear edema (PMA mouse ear model); assay type: in vivo; details: topical in acetone, 25 ug/ear Mactanamide with 2 ug/ear PMA, 3 hours 20 minutes, left ear weight minus right ear (acetone) weight
Experimental: The efficacy of Mactanamide compounds as an anti-inflammatory agent was established by the following assay. Mactanamide was topically applied in acetone to the inside pinnae of the ears of mice in a solution comprising an edema-causing irritant, phorbol 12-myristate 13-acetate (PMA). Specifically, 2 μg/ear of PMA alone or in combination with 25 μg/ear of Mactanamide was applied to the left ears (5 mice per treatment group) and acetone was applied to all right ears. After 3 hours, 20 minutes incubation, the mice were sacrificed, the ears removed and bores taken and weighed. Edema was measured by subtracting the weight of the right ear (acetone control) from the weight of the left ear (treated). Results were recorded as % decrease (inhibition) or % increase (potentiation) in edema relative to the PMA control group edema.

[2] = test system: RTX-induced inflammation (edema) of the mouse ear; assay: Resiniferatoxin (RTX) assay, mouse ear edema; assay type: in vivo; details: topical in acetone, 50 ug/ear Mactanamide with 0.1 ug RTX per ear, 30 minutes, left ear weight minus right ear (acetone) weight
Experimental: A control, acetone, was applied to all right ears. After a 30 minute incubation, the mice were sacrificed, the ears removed, and bores taken and weighed.
Edema was measured by subtracting the weight of the right ear (control) from the weight of the left ear. The results were recorded as % decrease (inhibition) or % increase (potentiation) in edema relative to the control group edema.

CN1C(=O)C(Cc2c(O)cccc2O)NC(=O)C1Cc1ccccc1 (centres unmarked) [Mactanamide]
Edema (mg ± SEM) [1]: 2.6 ± 1.1 mg
Edema (mg ± SEM) [2]: 0.9 ± 0.5 mg

Source: patent US20030171379A1, “Methods of treating, preventing, or inhibiting inflammation with Mactanamide compounds” (priority 2001, published 2003)
